# What was measured:
# mycoses = conditions: cited from earlier work
# MA-104 [1] = test: Cytotoxicity of docusate sodium in solutions free of serum, MA-104; format: cell-based, monkey; set-up: key: 0: Cells had normal morphology; 4+: > 90% of cells showed CTE; conditions: 24 h, 37° C.
# Protocol: (§1) The cell lines used to evaluate cytotoxicity of docusate sodium were MA-104 derived from monkey kidneys, HeLa derived from human uterine carcinoma and primary fibroblasts from human foreskin. The cells were grown to confluency in 60×15 mm dishes. The cell monolayers were washed free of growth medium and 5 ml of serum-less growth medium containing docusate sodium at various concentrations was added. The cultures were incubated 24 hours at 37° C. and the cells then examined microscopically for cytotoxic effects (CTE). Controls were done in the same manner except that they were not exposed to docusate sodium.
# (§2) Table 1 lists the cytotoxicity of docusate sodium with regard to selected cell lines in cell culture.
# HeLa [2] = test: Cytotoxicity of docusate sodium in solutions free of serum, HeLa; format: cell-based, human; set-up: key: 0: Cells had normal morphology; 4+: > 90% of cells showed CTE; conditions: 24 h, 37° C.
# Protocol: as §1, §2
# [3] = system: primary fibroblasts from human foreskin; test: Cytotoxicity of docusate sodium in solutions free of serum, foreskin fibroblasts; format: cell-based; set-up: key: 0: Cells had normal morphology; 4+: > 90% of cells showed CTE; conditions: 24 h, 37° C.
# Protocol: as §1, §2
# MA-104 [4] = test: Cytotoxicity of docusate sodium in solutions containing serum, MA-104; format: cell-based, monkey; set-up: key to cytotoxic effect (CTE): 0: Cells have normal morphology; 4+: > 90% of cells showed CTE.; ±c: less than 10% of cells showed CTE; conditions: for cytotoxic effect (CTE): 24 h, MA-104
# Protocol: as §1
# (§3) The same procedure that was used for Example 8 was used for this example except that the medium used for growing the cells contained 2% by volume fetal calf serum.
# (§4) Table 2 lists the cytotoxic effect of docusate sodium at various concentrations in selected cell lines in the cell cultures of this Example.
# HeLa [5] = test: Cytotoxicity of docusate sodium in solutions containing serum, HeLa; format: cell-based, human; set-up: key: 0: Cells have normal morphology; 4+: > 90% of cells showed CTE.; ±c: less than 10% of cells showed CTE; conditions: 2% fetal calf serum, 24 h
# Protocol: as §1, §3, §4
# [6] = system: foreskin fibroblast cells; test: Cytotoxicity of docusate sodium in solutions containing serum, foreskin fibroblasts; format: cell-based, human; set-up: key: 0: Cells have normal morphology; 4+: > 90% of cells showed CTE.; ±c: less than 10% of cells showed CTE; conditions: 2% fetal calf serum, 24 h
# Protocol: as §1, §3, §4
# Candida albicans = test: Inhibition of the growth of Candida albicans in broth culture; format: cell-based; conditions: TSB, 30° C.
# Protocol: Candida albicans is a yeast and is the causative agent of thrush in humans and is a cause of vaginal infections, urinary tract infections, and infections at other body sites. The growth inhibition effects of docusate sodium on C. albicans are determined in broth culture using trypticase soy broth (TSB) which is a medium which supports growth of a wide variety of microorganisms. TSB was sterilized by autoclaving and filter sterilized docusate sodium in distilled water was added to the sterile TSB at the concentrations shown in Table 3. The cultures were inoculated and incubated at 30° C. for 72 hours. Growth in the cultures was checked at 24 hour intervals.
# Scopulariopsis = test: Inhibition of fungal growth on potato dextrose agar plates, Scopulariopsis; format: cell-based
# Protocol: (§5) FIG. 1 is a photograph of fungal cultures of Scopulariopsis, Penicillium and Aspergillus treated with various concentrations of docusate sodium from 0 concentration (the control) to 2.0 mg/ml and incubated for five days at room temperature. The nature of fungal growth required that a different experimental approach from that of Example 10 be used to determine the growth inhibition effects of docusate sodium on fungi. For these experiments potato dextrose agar plates containing different concentrations of docusate sodium were inoculated in the center of the agar with Scopulariopsis, Penicillium and Aspergillus. The cultures were then sealed with […] brand film and incubated at room temperature for five days. Since growth could not be measured by absorbance visual comparisons were made. […] Similar tests were conducted with Mucor.
# Penicillium = test: Inhibition of fungal growth on potato dextrose agar plates, Penicillium; format: cell-based
# Protocol: as §5
# Aspergillus = test: Inhibition of fungal growth on potato dextrose agar plates, Aspergillus; format: cell-based
# Protocol: as §5
# Mucor = test: Inhibition of fungal growth, Mucor; format: cell-based; conditions: all concentrations tested
# Protocol: The nature of fungal growth required that a different experimental approach from that of Example 10 be used to determine the growth inhibition effects of docusate sodium on fungi. For these experiments potato dextrose agar plates containing different concentrations of docusate sodium were inoculated in the center of the agar with Scopulariopsis, Penicillium and Aspergillus. The cultures were then sealed with PARAFILM brand film and incubated at room temperature for five days. Since growth could not be measured by absorbance visual comparisons were made. […] The results to date indicate that docusate sodium is fungistatic. […] Similar tests were conducted with Mucor.
# [7] = cited from earlier work
# [8] = use as food additive and stool softening agent; cited from earlier work
structure (smiles),measurement,setting,value
C[C@@H]1[C@H](O)[C@@H](C)/C=C/C=C/C=C/C=C/C=C/C=C/C=C/[C@H](O[C@@H]2O[C@H](C)[C@@H](O)[C@H](N)[C@@H]2O)C[C@@H]2O[C@](O)(C[C@@H](O)C[C@@H](O)[C@H](O)CC[C@@H](O)C[C@@H](O)CC(=O)O[C@H]1C)C[C@H](O)[C@H]2C(=O)O [amphotericin B],toxicity,mycoses; in vivo,often exhibits some toxicity
same,effectiveness against superficial and cutaneous mycoses,mycoses; superficial and cutaneous mycoses,not effective for the treatment of superficial and cutaneous mycoses
same,effectiveness against systemic mycoses,mycoses; systemic mycoses,"effective for the treatment of many, but not all, systemic mycoses"
"CCCCC(CC)COC(=O)CC(C(=O)OCC(CC)CCCC)S(=O)(=O)O (centres unmarked) [docusate sodium, 1,4 bis(2-ethylhexyl) sodium sulfosuccinate]",toxicity (CTE),MA-104 [1]; 0.01 mg/ml,0
same,toxicity (CTE),MA-104 [1]; 0.05 mg/ml,4+ (> 90% of cells showed CTE.)
same,toxicity (CTE),MA-104 [1]; 0.1 mg/ml,4+ (> 90% of cells showed CTE.)
same,toxicity (CTE),MA-104 [1]; 0.2 mg/ml,4+ (> 90% of cells showed CTE.)
same,toxicity (CTE),HeLa [2]; 0.01 mg/ml,0
same,toxicity (CTE),HeLa [2]; 0.05 mg/ml,4+ (> 90% of cells showed CTE.)
same,toxicity (CTE),HeLa [2]; 0.1 mg/ml,4+ (> 90% of cells showed CTE.)
same,toxicity (CTE),HeLa [2]; 0.2 mg/ml,4+ (> 90% of cells showed CTE.)
same,toxicity (CTE),[3]; 0.01 mg/ml,0
same,toxicity (CTE),[3]; 0.05 mg/ml,4+ (> 90% of cells showed CTE.)
same,toxicity (CTE),[3]; 0.1 mg/ml,4+ (> 90% of cells showed CTE.)
same,toxicity (CTE),[3]; 0.2 mg/ml,4+ (> 90% of cells showed CTE.)
same,cytotoxic effect (CTE),"MA-104 [4]; 0.01 mg/ml, 2% fetal calf serum",0
same,cytotoxic effect (CTE),"MA-104 [4]; 0.02 mg/ml, 2% fetal calf serum",0
same,cytotoxic effect (CTE),"MA-104 [4]; 0.03 mg/ml, 2% fetal calf serum",0
same,cytotoxic effect (CTE),"MA-104 [4]; 0.04 mg/ml, 2% fetal calf serum",0
same,effect of serum on cytotoxicity,"MA-104 [4]; 2% fetal calf serum vs serum-free, stated for the cells of Table 2",presence of serum reduced the cytotoxicity
same,relative sensitivity of MA-104 cells,"MA-104 [4]; 2% fetal calf serum, versus HeLa and foreskin fibroblast cells",less sensitive
same,cytotoxic effect (CTE),HeLa [5]; 0.02 mg/ml,0
same,cytotoxic effect (CTE),HeLa [5]; 0.03 mg/ml,±c (less than 10% of cells showed CTE.)
same,cytotoxic effect (CTE),HeLa [5]; 0.04 mg/ml,4+ (> 90% of cells showed CTE.)
same,cytotoxic effect (CTE),[6]; 0.01 mg/ml,0
same,cytotoxic effect (CTE),[6]; 0.02 mg/ml,±c (less than 10% of cells showed CTE.)
same,cytotoxic effect (CTE),[6]; 0.03 mg/ml,4+ (> 90% of cells showed CTE.)
same,cytotoxic effect (CTE),[6]; 0.04 mg/ml,4+ (> 90% of cells showed CTE.)
same,Growth recorded as absorbance at 540 nm,"Candida albicans; 0.06 mg/ml, 0 h",0.185
same,Growth recorded as absorbance at 540 nm,"Candida albicans; 0.06 mg/ml, 24 h",0.610
same,Growth recorded as absorbance at 540 nm,"Candida albicans; 0.06 mg/ml, 48 h",1.10
same,Growth recorded as absorbance at 540 nm,"Candida albicans; 0.06 mg/ml, 72 h",0.920
same,Growth recorded as absorbance at 540 nm,"Candida albicans; 0.12 mg/ml, 0 h",0.230
same,Growth recorded as absorbance at 540 nm,"Candida albicans; 0.12 mg/ml, 24 h",0.440
same,Growth recorded as absorbance at 540 nm,"Candida albicans; 0.12 mg/ml, 48 h",0.700
same,Growth recorded as absorbance at 540 nm,"Candida albicans; 0.12 mg/ml, 72 h",0.950
same,Growth recorded as absorbance at 540 nm,"Candida albicans; 0.25 mg/ml, 0 h",0.220
same,Growth recorded as absorbance at 540 nm,"Candida albicans; 0.25 mg/ml, 24 h",0.345
same,Growth recorded as absorbance at 540 nm,"Candida albicans; 0.25 mg/ml, 48 h",0.600
same,Growth recorded as absorbance at 540 nm,"Candida albicans; 0.25 mg/ml, 72 h",0.720
same,Growth recorded as absorbance at 540 nm,"Candida albicans; 0.5 mg/ml, 0 h",0.240
same,Growth recorded as absorbance at 540 nm,"Candida albicans; 0.5 mg/ml, 24 h",0.315
same,Growth recorded as absorbance at 540 nm,"Candida albicans; 0.5 mg/ml, 48 h",0.420
same,Growth recorded as absorbance at 540 nm,"Candida albicans; 0.5 mg/ml, 72 h",0.730
same,Growth recorded as absorbance at 540 nm,"Candida albicans; 1.0 mg/ml, 0 h",0.290
same,Growth recorded as absorbance at 540 nm,"Candida albicans; 1.0 mg/ml, 24 h",0.310
same,Growth recorded as absorbance at 540 nm,"Candida albicans; 1.0 mg/ml, 48 h",0.450
same,Growth recorded as absorbance at 540 nm,"Candida albicans; 1.0 mg/ml, 72 h",0.610
same,Growth recorded as absorbance at 540 nm,"Candida albicans; 2.0 mg/ml, 0 h",0.320
same,Growth recorded as absorbance at 540 nm,"Candida albicans; 2.0 mg/ml, 24 h",0.470
same,Growth recorded as absorbance at 540 nm,"Candida albicans; 2.0 mg/ml, 48 h",0.620
same,Growth recorded as absorbance at 540 nm,"Candida albicans; 2.0 mg/ml, 72 h",0.780
same,relative sensitivity of fungus,Scopulariopsis; Scopulariopsis versus Penicillium,more sensitive
same,growth inhibition,"Scopulariopsis; all concentrations up to 2.0 mg/ml, five days, room temperature, Scopulariopsis",growth of fungi was inhibited at all concentrations
same,sensitivity of growing tips of fungal mycelia (microscopic examination),Scopulariopsis; stated for the fungal colonies of FIG. 1,growing tips of the fungal mycelia (filaments) are sensitive
same,fungistatic nature of effect,Scopulariopsis; stated for the fungi of FIG. 1,fungistatic
same,relative sensitivity of fungus,Penicillium; Penicillium versus Aspergillus and Scopulariopsis,least sensitive
same,growth inhibition,"Penicillium; all concentrations up to 2.0 mg/ml, five days, room temperature, Penicillium",growth of fungi was inhibited at all concentrations
same,relative sensitivity of fungus,Aspergillus; Aspergillus versus Penicillium,more sensitive
same,growth inhibition,"Aspergillus; all concentrations up to 2.0 mg/ml, five days, room temperature, Aspergillus",growth of fungi was inhibited at all concentrations
same,growth inhibition,Mucor,growth was inhibited at all concentrations of docusate sodium tested
same,solubility in organic solvents,[7]; organic solvents such as alcohol,freely soluble
same,solubility in water,[7]; water,slowly soluble in water to a limited extent
same,systemic or local concentration on a cellular level,[8],do not provide a systemic or local concentration of from about 0.01 mg to about 0.2 mg of docusate sodium per ml on a cellular level
COC1=CC(=O)C[C@@H](C)[C@]12Oc1c(Cl)c(OC)cc(OC)c1C2=O [griseofulvin],effectiveness against mycoses,mycoses; requires prolonged administration of weeks or months,effective only for superficial and subcutaneous mycoses

# Source: patent publication US4885310A, “Anti-fungal methods and agent” (Kern; Gerald N., priority 1985, dated 1989)
